Counter-ions that a name gives are not always drawn.
What follows are molecules tested on KMS.12.BM cells (assay: KMS.12.BM cell viability assay). Conditions: 72 h; KMS.12.BM human myeloma cells, 3 days, Cell Titer-GLO ATP quantitation; read-out: KMS cellular IC50.
Format: cell-based
Experimental: KMS.12.BM cell line (human myeloma) was purchased from JCRB (Osaka, Japan) and maintained in RPMI with 10% FBS culture medium. To measure the cytotoxic activity of the compounds through ATP quantitation, the KMS.12.BM cells are plated in the RPMI culture medium at 5000 cells/well/per 100 μL into a 96-well polystyrene clear black tissue culture plate (Greiner-bio-one through VWR, NJ), in the presence or absence of a concentration range of test compounds. After 3 days, […] Cell Titer-GLO Luminescent (Promega, Madison, Wis.) cell culture agent is added to each well for 10 minutes at room temperature to stabilize the luminescent signal. This determines the number of viable cells in culture based on quantitation of the ATP present, which signals the presence of metabolically active cells. Luminescence is measured with the Top Count 384 (Packard Bioscience through Perkin Elmer, Boston, Mass.).
IC50 data for the Examples is presented in Table 4 as determined by Assay B1.
`Cc1cc2c(ccc3nnc(C)n32)n1CCc1ccccc1` [Example 6, 1,7-dimethyl-6-(2-phenylethyl)-6H-pyrrolo[2,3-e][1,2,4]triazolo[4,3-a]pyridine] was tested, and the IC50 was 1 to 10 µM. `Cc1cc2c(ccc3nnc(C)n32)n1Cc1ccccn1` [Example 7, 1,7-dimethyl-6-(pyridin-2-ylmethyl)-6H-pyrrolo[2,3-e][1,2,4]triazolo[4,3-a]pyridine] showed an IC50 of 1 to 10 µM. Work on `Cc1cc2c(ccc3nnc(C)n32)n1Cc1ccccc1Cl` [Example 8, 6-(2-chlorobenzyl)-1,7-dimethyl-6H-pyrrolo[2,3-e][1,2,4]triazolo[4,3-a]pyridine] yielded an IC50 of at most 1 µM. For `Cc1cc2c(ccc3nnc(C)n32)n1Cc1cccc(Cl)c1` [Example 9, 6-(3-chlorobenzyl)-1,7-dimethyl-6H-pyrrolo[2,3-e][1,2,4]triazolo[4,3-a]pyridine], the IC50 was at most 1 µM. `Cc1cc2c(ccc3nnc(C)n32)n1Cc1ccc(Cl)cc1` [Example 10, 6-(4-chlorobenzyl)-1,7-dimethyl-6H-pyrrolo[2,3-e][1,2,4]triazolo[4,3-a]pyridine] showed an IC50 of at most 1 µM. For `Cc1cc2c(ccc3nnc(C)n32)n1Cc1cccnc1` [Example 11, 1,7-dimethyl-6-(pyridin-3-ylmethyl)-6H-pyrrolo[2,3-e][1,2,4]triazolo[4,3-a]pyridine], the IC50 was 1 to 10 µM. Work on `Cc1cc2c(ccc3nnc(C)n32)n1CC1CCCC1` [Example 13, 6-(cyclopentylmethyl)-1,7-dimethyl-6H-pyrrolo[2,3-e][1,2,4]triazolo[4,3-a]pyridine] yielded an IC50 of 1 to 10 µM. `Cc1cc2c(ccc3nnc(C)n32)n1Cc1ccccc1F` [Example 14, 6-(2-fluorobenzyl)-1,7-dimethyl-6H-pyrrolo[2,3-e][1,2,4]triazolo[4,3-a]pyridine] gave an IC50 of at most 1 µM. In the case of `Cc1cc2c(ccc3nnc(C)n32)n1Cc1cccc(F)c1` [Example 15, 6-(3-fluorobenzyl)-1,7-dimethyl-6H-pyrrolo[2,3-e][1,2,4]triazolo[4,3-a]pyridine], the IC50 is reported as at most 1 µM. `Cc1cc2c(ccc3nnc(C)n32)n1Cc1ccc(F)cc1` [Example 16, 6-(4-fluorobenzyl)-1,7-dimethyl-6H-pyrrolo[2,3-e][1,2,4]triazolo[4,3-a]pyridine] gave an IC50 of at most 1 µM. `Cc1ccccc1Cn1c(C)cc2c1ccc1nnc(C)n12` [Example 17, 1,7-dimethyl-6-(2-methylbenzyl)-6H-pyrrolo[2,3-e][1,2,4]triazolo[4,3-a]pyridine] was tested, and the IC50 was at most 1 µM. `Cc1cccc(Cn2c(C)cc3c2ccc2nnc(C)n23)c1` [Example 18, 1,7-dimethyl-6-(3-methylbenzyl)-6H-pyrrolo[2,3-e][1,2,4]triazolo[4,3-a]pyridine] showed an IC50 of at most 1 µM. Molecule `Cc1ccc(Cn2c(C)cc3c2ccc2nnc(C)n23)cc1` [Example 19, 1,7-dimethyl-6-(4-methylbenzyl)-6H-pyrrolo[2,3-e][1,2,4]triazolo[4,3-a]pyridine] has an IC50 of at most 1 µM. `Cc1cc2c(ccc3nnc(C)n32)n1Cc1cccc(C#N)c1` [Example 20, 3-[(1,7-dimethyl-6H-pyrrolo[2,3-e][1,2,4]triazolo[4,3-a]pyridine-6-yl)methyl]benzonitrile] gave an IC50 of at most 1 µM. `Cc1cc2c(ccc3nnc(C)n32)n1Cc1ccc2ccccc2n1` [Example 21, 1,7-dimethyl-6-(quinolin-2-ylmethyl)-6H-pyrrolo[2,3-e][1,2,4]triazolo[4,3-a]pyridine] showed an IC50 of at most 1 µM. For `COc1cccc(Cn2c(C)cc3c2ccc2nnc(C)n23)c1` [Example 22, 6-(3-methoxybenzyl)-1,7-dimethyl-6H-pyrrolo[2,3-e][1,2,4]triazolo[4,3-a]pyridine], the IC50 was at most 1 µM. `Cc1cc2c(ccc3nnc(C)n32)n1Cc1cccc(O)c1` [Example 23, 3-[(1,7-dimethyl-6H-pyrrolo[2,3-e][1,2,4]triazolo[4,3-a]pyridin-6-yl)methyl]phenol] showed an IC50 of at most 1 µM. `CC(=O)Nc1cccc(Cn2c(C)cc3c2ccc2nnc(C)n23)c1` [Example 25, N-{3-[(1,7-dimethyl-6H-pyrrolo[2,3-e][1,2,4]triazolo[4,3-a]pyridin-6-yl)methyl]phenyl}acetamide trifluoroacetate salt] was tested, and the IC50 was at most 1 µM.

Source: patent US10442803B2, “Tricyclic heterocycles as bet protein inhibitors” (Incyte Corporation, priority 2013, dated 2019)
